Results published in patent US20040223983A1, “Pharmaceutical preparations, use of these preparations and process for increasing the biovailability of pharmaceutical substances to be administered perorally” (priority 2002, published 2004).
Values after ≈ are worked out from the molar mass of the structure shown. Values joined by “and” are separate entries in the source; they are usually repeats but may differ in a detail not shown here. Equal values may be shown once. Read-outs that look alike come from different tables or passages of the source. Values belong to the compound of their own block, whether it stands above or below them.

Assays:
[1] = molecular target: T1, Recombinant, Human Cytochrome P450 3A4 Isoenzyme (Homo sapiens, UniProt P08684)
T1 sequence (P08684 whole entry): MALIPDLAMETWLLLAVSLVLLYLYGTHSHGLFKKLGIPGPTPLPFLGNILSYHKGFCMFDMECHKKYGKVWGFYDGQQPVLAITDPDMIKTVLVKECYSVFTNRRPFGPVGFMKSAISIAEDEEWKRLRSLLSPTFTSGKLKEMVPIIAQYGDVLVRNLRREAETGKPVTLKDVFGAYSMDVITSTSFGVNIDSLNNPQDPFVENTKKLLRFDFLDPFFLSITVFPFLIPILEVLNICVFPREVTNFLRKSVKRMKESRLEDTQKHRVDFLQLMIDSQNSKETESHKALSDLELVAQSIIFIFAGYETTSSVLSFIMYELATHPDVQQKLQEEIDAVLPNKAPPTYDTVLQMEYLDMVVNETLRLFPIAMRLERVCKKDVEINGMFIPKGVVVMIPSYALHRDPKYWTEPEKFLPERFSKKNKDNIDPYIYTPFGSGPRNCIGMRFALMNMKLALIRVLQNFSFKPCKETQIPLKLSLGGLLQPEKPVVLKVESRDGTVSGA
Description: (§1) In this connection, the inhibition of the enzymes is characterized via the concentration (IC50, μg/ml) of the adjuvants, in which 50% of the respective isoenzymes are inhibited.
(§2) Stock solutions of the respective test substances or test formulations are produced in acetonitrile and diluted with incubation buffer (3 mg/ml in 2% acetonitrile in the batch); additional concentrations are produced by serial dilution. Concentration of the acetonitrile is at most 2% in all batches.
(§3) The incubations are set in 96-hole plate format with 200 μl of total volume in double values. The background batch controls the fluorescence of the batch without enzymes and formulations according to the invention, and the inherent fluorescence of the substances is determined in the buffer dilution. […]
(§4) The batches are started by adding the enzyme/substrate mixture, shaken for 30 or 45 minutes in an incubator at 37° C. and then interrupted with 50 μl of stop solution. The plates are briefly shaken, and the fluorescence intensity is measured in the plate-fluorescence reader at the wavelengths for excitation or emission.
(§5) The development of the fluorescent product forms the basis for the calculation. […] The IC50 value is calculated from the concentration-dependent inhibition.

[2] = molecular target: T2, Recombinant, Human Cytochrome P450 2C19 Isoenzyme (Homo sapiens, UniProt P33261); assay: Cytochrome P450 inhibition test, in vitro CYP test (2C19); type: biochemical
T2 construct: purchased Gentest Corp., Woburn, Mass., USA
T2 sequence (P33261 whole entry): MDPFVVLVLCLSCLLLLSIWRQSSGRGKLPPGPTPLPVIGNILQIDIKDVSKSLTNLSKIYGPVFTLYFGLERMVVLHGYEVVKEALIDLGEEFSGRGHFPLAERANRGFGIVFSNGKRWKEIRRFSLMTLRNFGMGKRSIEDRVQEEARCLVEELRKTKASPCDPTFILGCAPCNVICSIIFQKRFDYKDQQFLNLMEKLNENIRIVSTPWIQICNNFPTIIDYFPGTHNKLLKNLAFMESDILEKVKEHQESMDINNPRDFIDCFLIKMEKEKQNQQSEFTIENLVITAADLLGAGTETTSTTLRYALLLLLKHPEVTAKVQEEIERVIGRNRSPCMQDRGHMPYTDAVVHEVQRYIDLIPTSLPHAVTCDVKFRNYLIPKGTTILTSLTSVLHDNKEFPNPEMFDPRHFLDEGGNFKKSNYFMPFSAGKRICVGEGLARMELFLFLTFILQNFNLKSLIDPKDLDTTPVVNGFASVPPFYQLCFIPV
Description: as §1, §2
The incubations are set in 96-hole plate format with 200 μl of total volume in double values. The background batch controls the fluorescence of the batch without enzymes and formulations according to the invention, and the inherent fluorescence of the substances is determined in the buffer dilution. The preparation of the dilutions and the pipetting diagram corresponds to the original instructions of the manufacturer of the test kit (Gentest Corp., Woburn, Mass., USA).
as §4, §5

[3] = molecular target: T3, Recombinant, Human Cytochrome P450 2C9 Isoenzyme (Homo sapiens, UniProt P11712)
T3 sequence (P11712 whole entry): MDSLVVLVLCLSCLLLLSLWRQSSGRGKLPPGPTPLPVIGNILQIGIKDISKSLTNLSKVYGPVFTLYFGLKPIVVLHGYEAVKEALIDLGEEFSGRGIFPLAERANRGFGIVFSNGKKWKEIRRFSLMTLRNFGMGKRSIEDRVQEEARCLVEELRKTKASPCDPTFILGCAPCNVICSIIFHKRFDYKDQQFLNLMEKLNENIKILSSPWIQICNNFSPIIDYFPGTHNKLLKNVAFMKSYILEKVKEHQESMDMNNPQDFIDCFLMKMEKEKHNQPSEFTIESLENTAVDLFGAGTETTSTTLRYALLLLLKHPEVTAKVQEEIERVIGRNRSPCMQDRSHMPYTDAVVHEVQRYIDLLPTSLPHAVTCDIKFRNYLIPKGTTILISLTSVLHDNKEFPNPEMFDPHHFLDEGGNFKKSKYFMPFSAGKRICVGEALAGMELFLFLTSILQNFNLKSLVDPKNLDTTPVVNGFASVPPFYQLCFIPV
Description: as §1, §2, §3, §4, §5

17β-HSD2 = molecular target: T4, 17β-HSD2 (Homo sapiens, UniProt P37059); assay: Metabolic stability, in vitro 17β-HSD2 test on intestinal microsomes; type: in vitro ADME; conditions: % of starting value of AE2, n=2
T4 construct: Intestinal microsomes (InVitro Technologies); protein content: 24 mg/ml; tissue InVitro Technologies; host or cells: intestinal microsomes
T4 sequence (P37059 1-387): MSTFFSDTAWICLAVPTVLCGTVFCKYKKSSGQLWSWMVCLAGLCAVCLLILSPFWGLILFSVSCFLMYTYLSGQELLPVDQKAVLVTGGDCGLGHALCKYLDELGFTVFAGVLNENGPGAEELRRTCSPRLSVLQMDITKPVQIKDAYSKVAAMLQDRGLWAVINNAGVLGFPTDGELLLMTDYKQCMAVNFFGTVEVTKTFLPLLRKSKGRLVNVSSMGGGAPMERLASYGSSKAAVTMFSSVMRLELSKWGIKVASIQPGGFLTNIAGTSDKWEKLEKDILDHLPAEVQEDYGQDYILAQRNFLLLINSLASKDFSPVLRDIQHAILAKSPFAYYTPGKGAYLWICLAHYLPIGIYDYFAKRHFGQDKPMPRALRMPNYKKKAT
Description: Pharmaceutical preparations according to the invention that contain steroids that have a secondary, beta-position hydroxyl group in 17-position of the sterane skeleton inhibit the 17β-HSD 2, so that less 17-keto-biotransformation product is produced. The inhibition potential is directly proportional to the mass proportion of the formulation according to the invention. […] Example 5; FIG. 3). It can be seen from this that formulations according to the invention are suitable to inhibit 17β-HSD 2.
17β-HSD2 test on microsomes of intestinal origin. Metabolic stability of 0.3 μM of AE2 in an intestinal microsome suspension and production of 17-ketone metabolites after 30 minutes based on the concentration (m/v) of a formulation according to the invention that contains Cremophor®EL and Transcutol®P, Smix 9:1, 20% (m/m), Miglyol®812.
A formulation according to the invention, produced analogously to Example 1a) and containing Cremophor®EL and Transcutol®P, Smix 9:1, 20% (m/m) Miglyol®812, is tested for its property to inhibit 17β-HSD2 in intestinal microsomes. 17β-HSD2 mediates the intestinal enzymatic dehydrogenation of an OH group in 17-position of the sterane skeleton to form a ketone group. An inhibition of the 17β-HSD2 is measured via a test substance AE2, which is the substrate of this enzyme, and is biotransformed into a 17-keto product. The ratio of the AE2 concentration and the 17-ketone-biotransformation product is determined at specific times (0, 10, 20, 30, 45 and 60 minutes) in each case for the starting-AE2 concentration in % (m/m).
For these tests, the following materials are used:
Na-Phosphate buffer: 100 mmol of Na2HPO4×2H2O and 100 mmol of NaH2PO4×H2O
Test substance solution of AE2: AE2 50 μmol in MeOH (in the test batch 0.3 μmol)
Formulation batches of the above-mentioned formulation according to the invention (% m/v): 0%, 0.00441%, 0.0147%, 0.0441%, 0.147% and 0.441% formulation in Na-phosphate buffer (in the test batch 0%, 0.003%, 0.01%, 0.03%, […] and 0.3% formulation).
Cofactor solution: 2 ml of glucose-6-phosphate (160 mmol)/MgCl2 (80 mmol)-mixture is added to 400 μl of a glucose-6-phosphate-dehydrogenase solution, then 15.6 mg of NADP and 13.4 mg of NAD are added.
Microsome solution: Intestinal microsomes (InVitro Technologies; protein content: 24 mg/ml; CYP450 content; 0.058 nmol/mg of protein) Thawed in a water bath at 37° C. (˜60 seconds) and diluted to a concentration of 5 mg/ml of protein with Na-phosphate buffer.
In each case, 170 μl/well of the formulation buffer and 5 μl/well of test substance solution of AE2 are introduced into the corresponding wells, whereby double values are set for each measuring time (0, 10, 20, 30, 45 and 60 minutes).
In each case, 250 μl of ice-cold MeOH is added at the 0-minute values. Immediately after, 25 μl of microsome solution and 50 μl of cofactor solution are added to all wells. The samples of the 0-minute values are stored without incubation at ˜−20° C. for about 24 hours. The other samples are incubated in each case for 10, 20, 30, 45 and 60 minutes at 37° C., and the dehydrogenation reaction is stopped after these times by the addition of 250 μl of ice-cold MeOH in each case. The samples are stored for about 24 hours before they are measured by HPLC at ˜−20° C. and they are centrifuged before HPLC analysis at 3000 rpm, whereby the supernatant is measured.

Lipophilicity (log P) = type: physicochemical
[4] = molecular target: T1, Recombinant, Human Cytochrome P450 3A4 Isoenzyme; assay: Cytochrome P450 inhibition test, in vitro CYP test (3A4); conditions: substrate 7-BFC, 30 minutes, 37° C.
Description: as §1, §2, §3, §4, §5

[5] = molecular target: T3, Recombinant, Human Cytochrome P450 2C9 Isoenzyme; assay: Cytochrome P450 inhibition test, in vitro CYP test (2C9); conditions: substrate 7-MFC, 45 minutes, 37° C.
Description: as §1, §2, §3, §4, §5

[6] = molecular target: human, intestinal P-gp- transporters (Homo sapiens, UniProt P08183); assay: P-gp- transporter test (calcein AM, MATU cells); conditions: ratio of fluorescence intensity test solution to blank
Sequence of human, intestinal P-gp- transporters (P08183 whole entry): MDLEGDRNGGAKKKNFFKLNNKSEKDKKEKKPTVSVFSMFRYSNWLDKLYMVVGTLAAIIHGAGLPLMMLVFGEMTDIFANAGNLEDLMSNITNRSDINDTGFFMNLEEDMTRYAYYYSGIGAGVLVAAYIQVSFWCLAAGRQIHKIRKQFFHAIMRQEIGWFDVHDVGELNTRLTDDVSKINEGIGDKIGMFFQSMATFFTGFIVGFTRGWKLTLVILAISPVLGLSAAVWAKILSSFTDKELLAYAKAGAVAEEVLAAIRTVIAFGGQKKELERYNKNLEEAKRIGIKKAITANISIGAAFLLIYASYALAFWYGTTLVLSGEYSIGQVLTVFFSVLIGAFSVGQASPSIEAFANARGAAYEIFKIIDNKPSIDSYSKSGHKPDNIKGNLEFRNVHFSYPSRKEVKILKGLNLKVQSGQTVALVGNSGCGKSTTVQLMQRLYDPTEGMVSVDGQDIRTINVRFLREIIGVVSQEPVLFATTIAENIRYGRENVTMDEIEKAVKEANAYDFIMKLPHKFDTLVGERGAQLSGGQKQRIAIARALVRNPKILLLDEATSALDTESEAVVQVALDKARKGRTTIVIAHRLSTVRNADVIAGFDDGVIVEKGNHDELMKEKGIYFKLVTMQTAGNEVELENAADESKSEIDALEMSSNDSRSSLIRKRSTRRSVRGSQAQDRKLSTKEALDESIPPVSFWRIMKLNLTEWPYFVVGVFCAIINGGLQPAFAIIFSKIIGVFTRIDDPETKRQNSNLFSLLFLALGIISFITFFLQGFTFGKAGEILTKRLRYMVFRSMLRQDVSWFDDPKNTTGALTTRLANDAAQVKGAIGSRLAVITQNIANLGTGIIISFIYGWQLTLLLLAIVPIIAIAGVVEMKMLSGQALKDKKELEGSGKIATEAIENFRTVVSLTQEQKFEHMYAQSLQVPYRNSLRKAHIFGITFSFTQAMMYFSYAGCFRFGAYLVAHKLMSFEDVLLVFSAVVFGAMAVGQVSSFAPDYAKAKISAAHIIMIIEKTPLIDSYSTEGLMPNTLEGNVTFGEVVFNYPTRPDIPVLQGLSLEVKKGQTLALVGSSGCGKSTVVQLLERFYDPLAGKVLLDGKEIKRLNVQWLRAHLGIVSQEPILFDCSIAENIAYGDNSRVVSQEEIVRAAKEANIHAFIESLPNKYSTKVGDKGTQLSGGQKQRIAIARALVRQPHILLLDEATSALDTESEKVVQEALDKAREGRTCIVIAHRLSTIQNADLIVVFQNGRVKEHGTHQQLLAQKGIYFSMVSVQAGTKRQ
Description: In this test, the activity to inhibit the transporters is characterized via ratio (R) that indicates the ratio of the fluorescence intensity of the test solution to the fluorescence intensity of the blank and is directly proportional to inhibiting the P-gp- transporters. Fluorescence intensity test solution corresponds to fluorescence intensity, measured at 485/535 nm (excitation or emission), of cells that contain test solution and calcein AM working solution.
For this purpose, a suspension of human breast cancer cell lines, MATU-cell lines (Max-Dellbrück-Centrum (MDC)-Berlin-Buch; 40,000 cells/well/200 μl) is first added to a microtiter plate (Greiner black 96 plates, clear bottom, sterile). […]
Then, the addition of calcein AM working solution (20 μl/well) to all wells is carried out, i.e., with and without test solution. […] After incubation is completed, the fluorescence is measured in a plate-fluorescence reader (Fluostar®, B&L Systems, Maarssen) at 485/535 nm (excitation or emission).
The following ratio: ratio (R) of the fluorescence intensity of the test solution to the fluorescence intensity of the blank is determined.
The fluorescence intensity of the test solution corresponds to the fluorescence intensity, measured at 485/535 nm (excitation or emission), of the cells that contain the test solution and the calcein AM working solution.

IC50 CYP-2C19 [2]: >3000 µg/mL
Compound: Refined castor oil (RIZ)

IC50 CYP-3A4 [4]: 755 µg/mL (≈ 5.63 mM)
IC50 CYP-2C9 [5]: 1500 µg/mL (≈ 11.2 mM)
IC50 CYP-2C19 [2]: 1400 µg/mL (≈ 10.4 mM)
Maximum R-Value ([6]; calcein AM, 485/535 nm, MATU cells, test solutions 0.3 to 33.3 μmol): 1.18
Compound: CCOCCOCCO [Transcutol ® P, Ethoxydiglycol]

IC50 CYP-2C19 [2]: 8.4 µg/mL
Compound: Polysorbate 80 [Tween ® 80]

The next lines start with the compound.

Compound: CCCCCCCC/C=C\CCCCCCCC(=O)OCC [Ethyl oleate, Ethyl oleate (EO)]
IC50 CYP-3A4 [1]: 117 µg/mL (≈ 0.377 mM)
IC50 CYP-2C19 [2]: 325 µg/mL (≈ 1.05 mM)
IC50 CYP-2C9 [3]: 195 µg/mL (≈ 0.628 mM)

Compound: PEG-40-hydrogenated castor oil [Cremophor ® RH40]
IC50 CYP-2C19 [2]: 11 µg/mL

Compound: CN(CCCCCCC(F)(F)C(F)(F)C(F)(F)C(F)(F)F)CCCCC[C@@H]1Cc2cc(O)ccc2[C@@H]2[C@@H]1[C@@H]1CC[C@H](O)[C@@]1(C)C[C@@H]2F [AE2, 11β-fluoro-7α-{5-[methyl-(7,7,8,8,9,9,10,10,10-nonafluorodecyl)amino]pentyl}estra-1,3,5(10)-triene-3,17β-diol]
amount of genuine AE2 after 30 minutes in the microsome suspension (17β-HSD2; 0.0% Cremophor EL/Miglyol 812/Transcutol P (72T/20T/8T) in test batch): 64% and 66%
amount of genuine AE2 after 30 minutes in the microsome suspension (17β-HSD2; 0.003% Cremophor EL/Miglyol 812/Transcutol P (72T/20T/8T) in test batch): 70% and 71%
amount of genuine AE2 after 30 minutes in the microsome suspension (17β-HSD2; 0.01% Cremophor EL/Miglyol 812/Transcutol P (72T/20T/8T) in test batch): 75% and 76%
amount of genuine AE2 after 30 minutes in the microsome suspension (17β-HSD2; 0.03% Cremophor EL/Miglyol 812/Transcutol P (72T/20T/8T) in test batch): 89% and 83%
amount of genuine AE2 after 30 minutes in the microsome suspension (17β-HSD2; 0.1% Cremophor EL/Miglyol 812/Transcutol P (72T/20T/8T) in test batch): 109% and 114%
amount of genuine AE2 after 30 minutes in the microsome suspension (17β-HSD2; 0.3% Cremophor EL/Miglyol 812/Transcutol P (72T/20T/8T) in test batch): 106% and 109%
logP (Lipophilicity (log P)): 5.9

Compound: Polyethylene glycol-35-castor oil [Cremophor ® EL]
IC50 CYP-2C19 [2]: 10 µg/mL

Compound: C8-C12 triglycerides (MCT) [Miglyol ® 812]
IC50 CYP-2C19 [2]: 100 µg/mL

Compound: CN(CCCCC[C@@H]1Cc2cc(O)ccc2[C@@H]2[C@@H]1[C@@H]1CC[C@H](O)[C@@]1(C)C[C@@H]2F)CCCSCCCC(F)(F)C(F)(F)F [AE1, 11β-fluoro-7α-{5-[N-methyl-N-3-(4,4,5,5,5-pentafluoropentylthio)-propylamino]-pentyl}-estra-1,3,5(10)-triene-3,17β-diol]
R ([6]; P-gp substrate): 2.43

Compound: PEG-400-monoricinoleate [Estax ® 54]
IC50 CYP-2C19 [2]: 0.7 µg/mL
